Patent US20060069132A1, “Azolecarboxamide herbicides” (priority 2004, published 2006)

Key:
barnyardgrass [1] = assay: Test B pre-/postemergence herbicide test; format: in vivo, Echinochloa crus-galli; conditions: 0 = no effect, 100 = complete control, preemergence
In short: (§1)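 Herbicidal effect was judged by eye on a 0–100 scale after plants stood 13 to 15 days in the greenhouse following pre- or postemergence treatment with surfactant-containing formulations.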

Surinam grass = assay: Test B pre-/postemergence herbicide test; format: in vivo, Urochloa decumbens; conditions: for Surinam Grass plant response rating: postemergence, scale 0 (no effect) to 100 (complete control)
In short: (§2)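 Pre: seeds sown, then sprayed. Post: 1–4-leaf plants (2–18 cm) sprayed at the same time. Paddy: flooded, treated at 2-leaf stage. Formulation: non-phytotoxic solvent with surfactant. Greenhouse 13–15 days; visual 0–100 score relative to controls.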

cocklebur = assay: Test B pre-/postemergence herbicide test; format: in vivo, Xanthium strumarium; conditions: for Cocklebur plant response rating: postemergence, scale 0 (no effect) to 100 (complete control)
In short: as §1

corn = assay: Test B pre-/postemergence herbicide test; format: in vivo, Zea mays; conditions: for Corn plant response rating: postemergence, scale 0 (no effect) to 100 (complete control)
In short: as §2

large crabgrass = assay: Test B pre-/postemergence herbicide test; format: in vivo, Digitaria sanguinalis; conditions: for Crabgrass, Large plant response rating: postemergence, scale 0 (no effect) to 100 (complete control)
In short: as §2

giant foxtail = assay: Test B pre-/postemergence herbicide test; format: in vivo, Setaria faberi; conditions: for Foxtail, Giant plant response rating: postemergence, scale 0 (no effect) to 100 (complete control)
In short: as §2

lambsquarters = assay: Test B pre-/postemergence herbicide test; format: in vivo, Chenopodium album; conditions: for Lambsquarters plant response rating: postemergence, scale 0 (no effect) to 100 (complete control)
In short: as §2

morningglory = assay: Test B pre-/postemergence herbicide test; format: in vivo, Ipomoea coccinea; conditions: for Morningglory plant response rating: postemergence, scale 0 (no effect) to 100 (complete control)
In short: as §1

pigweed = assay: Test B pre-/postemergence herbicide test; format: in vivo, Amaranthus retroflexus
In short: as §2

rice [2] = assay: Test B pre-/postemergence herbicide test; format: in vivo, Oryza sativa; conditions: 0 = no effect, 100 = complete control, preemergence
In short: as §2

velvetleaf = assay: Test B pre-/postemergence herbicide test; format: in vivo, Abutilon theophrasti; conditions: for Velvetleaf plant response rating: postemergence, scale 0 (no effect) to 100 (complete control)
In short: as §2

blackgrass = assay: Test B postemergence herbicide test; format: in vivo, Alopecurus myosuroides; conditions: postemergence, visual rating, scale 0 (no effect) to 100 (complete control)
In short: (§3)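 Treated at 2-leaf (paddy) or 1–4-leaf, 2–18 cm (postemergence); greenhouse 13–15 d; visual score vs control, 0 none to 100 complete control; dash = not tested.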

wheat = assay: Test B postemergence herbicide test; format: in vivo, Triticum aestivum; parameters: key to Wheat plant response rating: 0 = no effect, 100 = complete control; conditions: postemergence, visual rating, scale 0 (no effect) to 100 (complete control)
In short: (§4)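 Plants grow to 1- to 4-leaf stage (2–18 cm) for postemergence spraying, or to 2-leaf stage for the paddy test. Formulated compound is applied. Greenhouse holding lasts 13–15 days. Response is scored visually relative to controls, 0 no effect to 100 complete control; a dash means no result.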

wild oat = assay: Test B postemergence herbicide test; format: in vivo, Avena fatua; conditions: postemergence, visual rating, scale 0 (no effect) to 100 (complete control)
In short: as §4

rice [3] = assay: Test B flooded paddy test; format: in vivo, Oryza sativa; conditions: 1000 g ai/ha, scale 0 to 100 (0 no effect, 100 complete control)
In short: as §4

[4] = test system: small flower umbrella sedge; assay: Test B flooded paddy test; format: in vivo, Cyperus difformis; conditions: 1000 g ai/ha, scale 0 to 100 (0 no effect, 100 complete control)
In short: as §3

ducksalad [5] = assay: Test B flooded paddy test; format: in vivo, Heteranthera limosa; conditions: 1000 g ai/ha, scale 0 to 100 (0 no effect, 100 complete control)
In short: as §3

barnyardgrass [6] = assay: Test B flooded paddy test; format: in vivo, Echinochloa crus-galli; conditions: 1000 g ai/ha, scale 0 to 100 (0 no effect, 100 complete control)
In short: as §3

rice [7] = assay: Test C flooded paddy test; format: in vivo, Oryza sativa
In short: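 Plants were grown to the 1- to 4-leaf stage (2–18 cm) and then treated postemergence, or grown to the 2-leaf stage for the flooded paddy test. They were held in a greenhouse for 12 to 14 days and then scored by eye against controls, where 0 is no effect and 100 is complete control.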

[8] = test system: smallflower umbrella sedge; assay: Test C flooded paddy test; format: in vivo, Cyperus difformis
ducksalad [9] = assay: Test C flooded paddy test; format: in vivo, Heteranthera limosa
barnyardgrass [10] = assay: Test C flooded paddy test; format: in vivo, Echinochloa crus-galli
In short: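 Visual rating, 0 (no effect) to 100 (complete control), vs. controls at 12–14 d in greenhouse. Postemergence: 1–4-leaf plants, 2–18 cm. Paddy: flooded, barnyardgrass at 2-leaf stage.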

[11] = 125 g ai/ha, 0 = no effect, 100 = complete control, preemergence
[12] = 500 g ai/ha, visual rating, 0 = no effect, 100 = complete control, preemergence
[13] = 62 g ai/ha, scale 0 to 100 (0 no effect, 100 complete control)
[14] = 125 g ai/ha, scale 0 to 100 (0 no effect, 100 complete control)
[15] = 250 g ai/ha, scale of 0 to 100, 0 is no effect, 100 is complete control
[16] = 500 g ai/ha, visual rating after 12 to 14 days, scale 0 to 100 (0 no effect, 100 complete control)

CCc1cn(C(C)(C)C)nc1C(=O)Nc1cc(C(=O)N(C)C)ccn1 [Compound 232]
Barnyardgrass plant response rating (0 to 100 scale) (barnyardgrass [1]; 125 g ai/ha): 20
Plant response rating, Barnyardgrass (barnyardgrass [1]; 500 g ai/ha, visual rating): 60
Surinam Grass plant response rating (0 to 100 scale) (Surinam grass; [11]): 0
Plant response rating, Surinam Grass (Surinam grass; [12]): 30
Surinam Grass plant response rating (Surinam grass; 125 g ai/ha, visual rating): 10
Surinam Grass plant response rating (Surinam grass; 500 g ai/ha, visual rating): 20
Cocklebur plant response rating (0 to 100 scale) (cocklebur; [11]): 0
Plant response rating, Cocklebur (cocklebur; [12]): 0
Cocklebur plant response rating (cocklebur; 125 g ai/ha, visual rating): 10
Cocklebur plant response rating (cocklebur; 500 g ai/ha, visual rating): 30
Corn plant response rating (0 to 100 scale) (corn; [11]): 0
Plant response rating, Corn (corn; [12]): 0
Corn plant response rating (corn; 125 g ai/ha, visual rating): 10
Corn plant response rating (corn; 500 g ai/ha, visual rating): 20
Crabgrass, Large plant response rating (0 to 100 scale) (large crabgrass; [11]): 60
Plant response rating, Crabgrass, Large (large crabgrass; [12]): 100
Crabgrass, Large plant response rating (large crabgrass; 125 g ai/ha, visual rating): 10
Crabgrass, Large plant response rating (large crabgrass; 500 g ai/ha, visual rating): 20
Foxtail, Giant plant response rating (0 to 100 scale) (giant foxtail; [11]): 0
Plant response rating, Foxtail, Giant (giant foxtail; [12]): 30
Foxtail, Giant plant response rating (giant foxtail; 125 g ai/ha, visual rating): 10
Foxtail, Giant plant response rating (giant foxtail; 500 g ai/ha, visual rating): 30
Lambsquarters plant response rating (0 to 100 scale) (lambsquarters; [11]): 80
Plant response rating, Lambsquarters (lambsquarters; [12]): 90
Lambsquarters plant response rating (lambsquarters; 125 g ai/ha, visual rating): 50
Lambsquarters plant response rating (lambsquarters; 500 g ai/ha, visual rating): 60
Morningglory plant response rating (0 to 100 scale) (morningglory; [11]): 10
Plant response rating, Morningglory (morningglory; [12]): 20
Morningglory plant response rating (morningglory; 125 g ai/ha, visual rating): 30
Morningglory plant response rating (morningglory; 500 g ai/ha, visual rating): 70
Pigweed plant response rating (0 to 100 scale) (pigweed; [11]): 90
Plant response rating, Pigweed (pigweed; [12]): 90
Pigweed plant response rating (pigweed; postemergence, 500 g ai/ha, visual rating, scale 0 (no effect) to 100 (complete control)): 40
Rice plant response rating (0 to 100 scale) (rice [2]; 125 g ai/ha): 10
Plant response rating, Rice (rice [2]; 500 g ai/ha, visual rating): 50
Velvetleaf plant response rating (0 to 100 scale) (velvetleaf; [11]): 20
Plant response rating, Velvetleaf (velvetleaf; [12]): 40
Velvetleaf plant response rating (velvetleaf; 125 g ai/ha, visual rating): 30
Velvetleaf plant response rating (velvetleaf; 500 g ai/ha, visual rating): 40
Blackgrass plant response rating (blackgrass; 125 g ai/ha): 0
Blackgrass plant response rating (blackgrass; 500 g ai/ha): 0
Wheat plant response rating (wheat; 125 g ai/ha): 0
Wheat plant response rating (wheat; 500 g ai/ha): 0
Oat, Wild plant response rating (wild oat; 125 g ai/ha): 0
Oat, Wild plant response rating (wild oat; 500 g ai/ha): 0
Rice plant response rating (rice [3]): 50
Sedge, Umbrella plant response rating [4]: 90
Ducksalad plant response rating (ducksalad [5]): 80
Barnyardgrass plant response rating (barnyardgrass [6]): 40
Rice plant response rating (rice [7]; [13]): 0
Rice plant response rating (rice [7]; [14]): 20
Rice plant response rating (rice [7]; [15]): 35
Plant response rating, Rice (rice [7]; [16]): 60
Sedge, Umbrella plant response rating [8, 13]: 0
Sedge, Umbrella plant response rating [8, 14]: 35
Sedge, Umbrella plant response rating [8, 15]: 55
Plant response rating, Sedge, Umbrella [8, 16]: 85
Ducksalad plant response rating (ducksalad [9]; [13]): 0
Ducksalad plant response rating (ducksalad [9]; [14]): 0
Ducksalad plant response rating (ducksalad [9]; [15]): 30
Plant response rating, Ducksalad (ducksalad [9]; [16]): 80
Barnyardgrass plant response rating (barnyardgrass [10]; [13]): 0
Barnyardgrass plant response rating (barnyardgrass [10]; [14]): 0
Barnyardgrass plant response rating (barnyardgrass [10]; [15]): 0
Plant response rating, Barnyardgrass (barnyardgrass [10]; [16]): 15
